From patent US20250042876A1, “HERBICIDAL PYRAZOLE PYRIMIDINE COMPOUNDS” (SYNGENTA CROP PROTECTION AG, priority 2021, published 2025) come the findings set out here.

Format in all cases: in vivo
Common to all, as to conditions: 250 g/ha, evaluated after 13 days

Assay [1] concerns Amaranthus palmeri (AMAPA). Nature of the assay: Post-emergence herbicidal test, glasshouse. The protocol: (§1) Seeds of a variety of test species are sown in standard soil in pots Amaranthus palmeri (AMAPA), Amaranthus retoflexus (AMARE), Setaria faberi (SETFA), Echinochloa crus-galli (ECHCG), Ipomoea hederacea (IPOHE)). After cultivation for one day (pre-emergence) or after 8 days cultivation (post-emergence) under controlled conditions in a glasshouse (at 24/16° C., day/night; 14 hours light; 65% humidity), the plants are sprayed with an aqueous spray solution derived from the formulation of the technical active ingredient in acetone/water (50:50) solution containing 0.5% Tween 20 (polyoxyethelyene sorbitan monolaurate, CAS RN 9005-64-5). Compounds are applied at 250 g/ha unless otherwise stated. The test plants are then grown in a glasshouse under controlled conditions in a glasshouse (at 24/16° C., day/night; 14 hours light; 65% humidity) and watered twice daily. After 13 days for pre and post-emergence, the test is evaluated for the percentage damage caused to the plant. The biological activities are shown in the following table on a five-point scale (5=81-100%; 4=61-80%; 3=41-60%; 2=21-40%; 1=0-20%).

The subject of assay [2] is Amaranthus retoflexus (AMARE). Nature of the assay: Post-emergence herbicidal test, glasshouse. The procedure:
as §1

Assay [3] has as its system Echinochloa crus-galli (ECHCG). Nature of the assay: Post-emergence herbicidal test, glasshouse. The protocol: as §1
The subject of assay [4] is Ipomoea hederacea (IPOHE). Nature of the assay: Post-emergence herbicidal test, glasshouse. The procedure:
as §1

Assay [5] deals with Setaria faberi (SETFA). Nature of the assay: Post-emergence herbicidal test, glasshouse. The protocol:
as §1

Assay [6] deals with Amaranthus palmeri (AMAPA). Nature of the assay: Pre-emergence herbicidal test, glasshouse. The procedure: as §1
Assay [7] relates to Amaranthus retoflexus (AMARE). Nature of the assay: Pre-emergence herbicidal test, glasshouse. The procedure:
as §1

In assay [8] the test system is Echinochloa crus-galli (ECHCG). Nature of the assay: Pre-emergence herbicidal test, glasshouse. The protocol:
as §1

Assay [9] deals with Ipomoea hederacea (IPOHE). Nature of the assay: Pre-emergence herbicidal test, glasshouse. The protocol: as §1
The test system of assay [10] is Setaria faberi (SETFA). Nature of the assay: Pre-emergence herbicidal test, glasshouse. The protocol:
as §1

For `FC(F)(F)c1cc(Cc2ncc(Cl)cn2)n(-c2ccc(Cl)cc2)n1` [Compound 1.008], the “AMAPA percentage damage caused to the plant (five-point scale)” value (from here on “AMAPA percentage damage caused”) in assay [1] and in assay [6] was 5 (5=81-100%) throughout. Further, the “AMARE percentage damage caused to the plant (five-point scale)” value (“AMARE percentage damage caused” below) in assay [2] and in [7] was 5 (5=81-100%) in each case. For the same compound, the “ECHCG percentage damage caused to the plant (five-point scale)” value (shortened to “ECHCG percentage damage caused”) in [3] and in [8] was 5 (5=81-100%) each time. In addition, the figures for the “IPOHE percentage damage caused to the plant (five-point scale)” value (“IPOHE percentage damage caused” for short) in assay [4] and in [9] were 3 (3=41-60%) and 4 (4=61-80%), respectively. In addition, the “SETFA percentage damage caused to the plant (five-point scale)” value (“SETFA percentage damage caused” below) in the assay on Setaria faberi (SETFA) [5] and in the assay on Setaria faberi (SETFA) [10] was 5 (5=81-100%) each time.

Consider `FC(F)(F)c1ccc(-n2nc(C(F)(F)F)cc2Cc2ncc(Cl)cn2)cc1` [Compound 1.001, 5-chloro-2-[[5-(trifluoromethyl)-2-[4-(trifluoromethyl)phenyl]pyrazol-3-yl]methyl]pyrimidine], for which the “AMAPA percentage damage caused” value in assay [1] is 4 (4=61-80%); in assay [6], 5 (5=81-100%). Also, the “AMARE percentage damage caused” value is 4 (4=61-80%) in assay [2] and 5 (5=81-100%) in [7]. In addition, the “ECHCG percentage damage caused” value in assay [3] was 4 (4=61-80%); in assay [8], 5 (5=81-100%). The “IPOHE percentage damage caused” value in assay [4] is recorded as 4 (4=61-80%); in assay [9] it was 5 (5=81-100%). The results for the “SETFA percentage damage caused” value in the assay on Setaria faberi (SETFA) [5] and with Setaria faberi (SETFA) [10] were 4 (4=61-80%) and 5 (5=81-100%), respectively.

With `FC(F)c1cc(Cc2ncc(Cl)cn2)n(-c2ccc(C(F)(F)F)cc2)n1` [Compound 1.016], the “AMAPA percentage damage caused” value in [1] and in assay [6] was 5 (5=81-100%) throughout. In addition, the “AMARE percentage damage caused” value in assay [2] and in [7] was 5 (5=81-100%) in each case. The “ECHCG percentage damage caused” value in [3] and in assay [8] was 5 (5=81-100%) each time. The “IPOHE percentage damage caused” value in assay [4] is given as 3 (3=41-60%); in assay [9], 5 (5=81-100%). Further, the “SETFA percentage damage caused” value in the assay with Setaria faberi (SETFA) [5] and with Setaria faberi (SETFA) [10] was 5 (5=81-100%) each time.

Take `FC(F)c1cc(Cc2ncc(Cl)cn2)n(-c2ccc(Cl)nc2)n1` [Compound 1.035]: the entries for the “AMAPA percentage damage caused” value in assay [1] and in assay [6] were 4 (4=61-80%) and 5 (5=81-100%), respectively. Besides, the “AMARE percentage damage caused” value in assay [2] is given as 4 (4=61-80%); in [7], 5 (5=81-100%). Moreover, the “ECHCG percentage damage caused” value is on record as 3 (3=41-60%) in assay [3] and 4 (4=61-80%) in assay [8]. Further, the “IPOHE percentage damage caused” value in assay [4] and in assay [9] was 4 (4=61-80%) each time. Further, the entries for the “SETFA percentage damage caused” value with Setaria faberi (SETFA) [5] and in the assay on Setaria faberi (SETFA) [10] were 3 (3=41-60%) and 5 (5=81-100%), respectively.

Turning to `COc1cnc(Cc2cc(C(F)(F)F)nn2-c2ccc(C(F)(F)F)cc2)nc1` [Compound 1.004], the “AMAPA percentage damage caused” value in [1] and in [6] was 5 (5=81-100%) throughout. Moreover, the “AMARE percentage damage caused” value in [2] and in assay [7] was 5 (5=81-100%) each time. Further, the “ECHCG percentage damage caused” value in assay [3] and in [8] was 5 (5=81-100%) throughout. The “IPOHE percentage damage caused” value in [4] is reported as 4 (4=61-80%); in assay [9], 5 (5=81-100%). In addition, the “SETFA percentage damage caused” value in the assay on Setaria faberi (SETFA) [5] and in the assay on Setaria faberi (SETFA) [10] was 5 (5=81-100%) throughout.

On to `Fc1cnc(Cc2cc(C(F)(F)F)nn2-c2ccc(C(F)(F)F)cc2)nc1` [Compound 1.003], for which the “AMAPA percentage damage caused” value in assay [1] and in assay [6] was 5 (5=81-100%) each time. Further, the “AMARE percentage damage caused” value in [2] and in assay [7] was 5 (5=81-100%) each time. The “ECHCG percentage damage caused” value in assay [3] and in assay [8] was 5 (5=81-100%) each time. The “IPOHE percentage damage caused” value in assay [4] and in [9] was 5 (5=81-100%) throughout. For the same compound, the “SETFA percentage damage caused” value is listed as 4 (4=61-80%) with Setaria faberi (SETFA) [5] and 5 (5=81-100%) with Setaria faberi (SETFA) [10].
